Measurements taken from patent US4694069A, “Kibdelosporangium aridum SK&F-AAD-609” (SmithKline Beckman Corporation, priority 1985, dated 1987).

Legend:
[1] = system: rumen fermentation (strained rumen fluid); test: Rumen in vitro model; design: species or system steer; conditions: for AAN (alpha amino nitrogen) / AMO (ammonia nitrogen) / LYS (lysine): 6 h; for % PR (percent propionate) / ACE (acetate) / BUT (butyrate) / ETOH (ethanol) / IBU (isobutyrate) / IVA (isovalerate) / PRO (propionate) / TOTAL (total volatile fatty acids) / VAL: 24 h
Experimental: The AAD-609 antibiotics were characterized in a rumen in vitro model to assess their potential as feed additives for ruminants. […] Specifically, strained rumen fluid (10 ml) obtained from a fistulated steer receiving a roughage ration, was mixed with 10 ml of nutrient broth (20 mg casein hydrolysate, 100 mg maltose, 15 mg urea, 400 mg solka floc (cellulose), 100 mg cellobiose and 100 mg starch) and with a selected growth promotant and incubated at 39° C., with oscillation, for 24 hours. […] Measurement of AMO, LYS and AAN was done with a sample taken from the incubation flask after 6 hours.

[2] = system: mixed intestinal microflora (cecum fluid); test: Swine in vitro model; conditions: one level, up to 166.67 ppm; 4-5 h
Experimental: A swine in vitro model was used to characterize AAD-609 antibiotics as potential feed additives in swine and poultry. Mixed intestinal microflora were obtained from ileally-cannulated pigs. Virginiamycin, carbadox, AAD-216 and its components, and AAD-609 Complex (containing less than 5% AAD-216 antibiotics) were tested at one level. […] Glucose (GLU) was spared from microbial degradation. Volatile fatty acids (TOTAL) were the major end-product of microbial metabolism while lactic acid production were reduced. […] Since AAD-609 and AAD-216 give similar in vitro results, it is expected that AAD-609 has similar growth-promoting activity in monogastric animals. Also, the in vitro activity of AAD-609 is similar to the activity previously observed with bacitracin in this model.
The swine in vitro model was carried out by incubating 1.5 ml of cecum fluid, from a swine fed normal rations, mixed with 1.5 ml of a nutrient broth (3 mg casein hydrolysate, 30 mg maltose, 1.25 mg urea, 0.5 mg lysine, and 30 mg cellobiose) and with up to 166.67 parts per million of a selected growth promotant at 39° C., with oscillation, for about 4-5 hours. Results, percentage of control, are reported in the following table in which all abbreviations are as above except that LLA means L-lactate and ETOH means ethanol.

Structure (SMILES): CC[C@@]1([C@@H]2O[C@@H]([C@H]3O[C@@](O)(CO)[C@H](C)C[C@@H]3C)C[C@@H]2C)CC[C@H]([C@]2(C)CC[C@]3(C[C@H](O)[C@@H](C)[C@@H]([C@@H](C)[C@@H](OC)[C@H](C)C(=O)O)O3)O2)O1 [Monensin, monensin]
- AAN (alpha amino nitrogen) ([1]; 0.50 ppm): 117 % of control
- AMO (ammonia nitrogen) ([1]; 0.50 ppm): 103 % of control
- LYS (lysine) ([1]; 0.50 ppm): 78 % of control
- % PR (percent propionate) ([1]; 0.50 ppm): 131 % of control
- ACE (acetate) ([1]; 0.50 ppm): 100 % of control
- BUT (butyrate) ([1]; 0.50 ppm): 92 % of control
- ETOH (ethanol) ([1]; 0.50 ppm): 0 % of control
- IBU (isobutyrate) ([1]; 0.50 ppm): 112 % of control
- IVA (isovalerate) ([1]; 0.50 ppm): 150 % of control
- PRO (propionate) ([1]; 0.50 ppm): 141 % of control
- TOTAL (total volatile fatty acids) ([1]; 0.50 ppm): 108 % of control
- VAL ([1]; 0.50 ppm): 100 % of control
- AAN (alpha amino nitrogen) ([1]; 5.00 ppm): 185 % of control
- AMO (ammonia nitrogen) ([1]; 5.00 ppm): 101 % of control
- LYS (lysine) ([1]; 5.00 ppm): 144 % of control
- % PR (percent propionate) ([1]; 5.00 ppm): 189 % of control
- ACE (acetate) ([1]; 5.00 ppm): 101 % of control
- BUT (butyrate) ([1]; 5.00 ppm): 61 % of control
- ETOH (ethanol) ([1]; 5.00 ppm): 0 % of control
- IBU (isobutyrate) ([1]; 5.00 ppm): 84 % of control
- IVA (isovalerate) ([1]; 5.00 ppm): 103 % of control
- PRO (propionate) ([1]; 5.00 ppm): 208 % of control
- TOTAL (total volatile fatty acids) ([1]; 5.00 ppm): 110 % of control
- AAN (alpha amino nitrogen) ([1]; 50.00 ppm): 248 % of control
- AMO (ammonia nitrogen) ([1]; 50.00 ppm): 101 % of control
- LYS (lysine) ([1]; 50.00 ppm): 186 % of control
- ACE (acetate) ([1]; 50.00 ppm): 96 % of control
- BUT (butyrate) ([1]; 50.00 ppm): 53 % of control
- ETOH (ethanol) ([1]; 50.00 ppm): 0 % of control
- IBU (isobutyrate) ([1]; 50.00 ppm): 123 % of control
- IVA (isovalerate) ([1]; 50.00 ppm): 132 % of control
- PRO (propionate) ([1]; 50.00 ppm): 258 % of control
- TOTAL (total volatile fatty acids) ([1]; 50.00 ppm): 117 % of control
- VAL ([1]; 50.00 ppm): 81 % of control

Structure (SMILES): COC(=O)N/N=C/c1c[n+]([O-])c2ccccc2[n+]1[O-] [Carbadox, carbadox]
- % PR (percent propionate) [2]: 38 % of control
- ACE (acetate) [2]: 47 % of control
- BUT (butyrate) [2]: 46 % of control
- ETOH (ethanol) [2]: 62 % of control
- GLU (glucose) [2]: 138 % of control
- IBU (isobutyrate) [2]: 0 % of control
- IVA (isovalerate) [2]: 0 % of control
- LLA (L-lactate) [2]: 9 % of control
- LYS (lysine) [2]: 79 % of control
- PRO (propionate) [2]: 11 % of control
- TOTAL (total volatile fatty acids) [2]: 30 % of control
- VAL [2]: 0 % of control
